Data from patent US11613750B2, “Methods of reducing virus molecule levels” (priority 2019, dated 2023).
pEC50: −log10 of the molar value.

Experiments:
HBsAg = conditions: HepG2.2.15 cells; for pEC50: read-out: EC50, Extracell. HBsAg reduction
Protocol: (§1) Cell viability was assessed by ATP levels determined using the CellTiter-Glo reagent and the results normalized to the level in mock-treated cells. HBsAg levels were quantified using ELISA and the data normalized to the level in the mock-treated cells.
The cellular proteins GRP78/BIP, SRSF1, HNRNPA2B1, RPLP1, and RPLP2 were identified as having roles in HBV replication and infection. Various siRNAs and combinations thereof targeting the RNAs encoding these proteins were contacted with HepG2.2.15 cells at a final concentration of 7.5 nM.
The EC50 values of several siRNAs and combinations of siRNAs targeting HNRNPA2B1, GRP78, RPLP1, RPLP2, and/or SRSF1 were determined with respect to the ability to reduce HBsAg levels in HepG2.2.15 cells.
(§2) The ability of siRNAs targeting host factors that then results in the reduced production of multiple HBV molecules was evaluated by quantifying the amount of HBsAg, HBeAg, and Core protein produced by HepG2.2.15 cells after contacting with 10 nM of siRNAs that target HNRNPA2B1, GRP78, RPLP1, RPLP2, and SRSF1. We also contacted the cells with 5 nM of each set of siRNAs that targets both RPLP1 and RPLP2. The level of HBsAg, HBeAg, and Core were all determined using ELISAs.
(§3) The library of siRNAs of Example A5 were tested for the reduction of HBsAg secreted by HepG2.2.15 cells and in HBV virions.

HepG2.2.15 cells = test: HepG2.2.15 cell viability, CellTiter-Glo; conditions: for CC50: read-out: CC50, HepG2.2.15 cell viability, highest concentration tested 80 nM
Protocol: as §1
The effects on cell viability were quantified using the CellTiter-Glo reagent. All data were normalized to the amount of protein produced by mock-treated cells.
as §3

HBeAg = conditions: for HBeAg reduction HepG2.2.15 cells: 10 nM siRNA transfected into cells
Protocol: HBeAg in the cell culture media was assessed using ELISAs.
as §2, §3

RPLP1 mRNA = test: Target mRNA reduction by RT-qPCR in HepG2.2.15 cells; assay type: cell-based, human; conditions: 10 nM siRNA
Excerpt: The siRNAs identified as described in Example A6 should function by a mechanism that includes being loaded in the RISC complex to cleave the cognate mRNA, leading to the degradation of the mRNA. To examine whether the siRNAs are effective in reducing the target mRNA, we used reverse transcription coupled with quantitative polymerase chain reaction (RT-qPCR) to assess the level of the target mRNA in HepG2.2.15 cells. All 32 siRNAs described in Table 2 reduced the mRNA by more than 75% (Table 3).

RPLP1 protein = test: Target protein reduction by Western blot in HepG2.2.15 cells; assay type: cell-based, human; conditions: 10 nM siRNA, 72 h
Protocol: The host factors likely function in viral infection as proteins. Therefore, we determined whether the siRNAs could decrease the amounts of the target protein. Cell transfected with 10 nM of each siRNA for 72 h were lysed and the target proteins identified using Western blots probed with target-specific antibodies. The effective siRNAs described in Table 3 reduced the levels of the proteins by between 28 and 92% of the mock-treated samples. The reduction in the proteins is less than the reduction of the target mRNA, likely due to the proteins have prolonged half-life and that more time is needed for their degradation. […] We reason that this is due to RPLP1 and RPLP2 functioning as heterodimers such that a decrease of one protein increases the vulnerability of the other protein to degradation. Similar concomitant decrease of the proteins was reported by Campos et al. (17). Finally, the levels of two cellular proteins that are not targeted by the siRNAs, P54nrb and GAPDH, were unaffected.

HCoV-OC43 = test: OC43 virion RNA, Branched DNA assay, infected HCT8 cells; assay type: cell-based, human coronavirus OC43; conditions: for OC43 vRNA reduction siRNA and siGRP78: 10 nM siRNA along with 10 nM of siRNA targeting GRP78, HCT8 cells; for OC43 vRNA reduction: 10 nM siRNA, HCT8 cells
Protocol: The siRNAs were transfected in the HCT8 cells at a final concentration of 10 nM. A positive control for the inhibition of Coronavirus infection, Remdesivir (Rem), was used at 0.9 μM. The virion RNAs (vRNAs) were quantified using a Branched DNA assay specific for OC43 RNA.
The two siRNAs are those referred to by compound number (see Table 2) in the horizontal bar, along with siRNA targeting GRP78, siGRP78. A positive control for the inhibition of Coronavirus infection, Remdesivir (Rem), was used at 0.9 μM. The vRNAs were quantified using a Branched DNA assay specific for OC43 RNA.
The siRNAs listed in Table 2 were transfected into human colon epithelial HCT8 cells and the amount of OC43 virion produced was quantified. In these assays, the OC43 vRNA was quantified using a Branched DNA assay (QuantiGene gene expression assay: ThermoFisher). As a positive inhibitory control, the infected cells were treated with Remdesivir. […] Examples of the inhibition of OC43 vRNA are illustrated in FIG. 5A.
A combination of siRNAs targeting the host factor should more robustly reduce OC43 virion production. To illustrate this, HCT8 cells were transfected with 10 nM of siRNAs from Table 2 along with 10 nM of siRNA targeting GRP78. The virion RNAs produced were quantified using the Branched DNA assay. […] A combination of siRNAs targeting host factors GRP78, SRSF1, RPLP1 and RPLP2 can lead to significant reduction in the production of human Coronavirus virion RNA from infected cells.

Substance	pEC50 (HBsAg)	CC50 (HepG2.2.15 cells) [pM]	HBeAg reduction HepG2.2.15 cells (HBeAg) [%]	Target RNA reduction in HepG2.2.15 cells (RPLP1 mRNA) [%]	Target protein reduction in HepG2.2.15 cells (RPLP1 protein) [%]	OC43 vRNA reduction siRNA and siGRP78 (HCoV-OC43) [%]	OC43 vRNA reduction (HCoV-OC43) [%]	HBsAg level, dose response (HBsAg; FIG. 5A)	cytotoxicity / cell viability, siRNA library (HepG2.2.15 cells; up to the highest concentration tested, 80 nM)	HBeAg level, siRNA library (HBeAg; HepG2.2.15 cells, Example A6, FIG. 5A)
28 (UAUGGCCUCUGUCUCCGAGCUUUAGCUCGGAGACAGAGGCCAUAUU; siRNA; Self-complementary hairpin strand, chemistry not given here, further chemistry not given here; listed as Homo sapiens) [compound 28]	9.72	> 80000	30 ± 4	80 ± 2	58 ± 7	71 ± 6	48 ± 12			
30 (AGGAUAAGAUCAAUGCCCUUCUUGAAGGGCAUUGAUCUUAUCCUUU; siRNA; Self-complementary hairpin strand, chemistry not given here, further chemistry not given here; listed as Homo sapiens) [compound 30]	9.16	> 80000	58 ± 4	78 ± 3	45 ± 8	84 ± 6	90 ± 6			
31 (UUUGGCCUGGCUUGUUUGCAAUUUUGCAAACAAGCCAGGCCAAAUU; siRNA; Self-complementary hairpin strand, chemistry not given here, further chemistry not given here; listed as Homo sapiens) [compound 31]	10.92	> 80000		84 ± 4	37 ± 7	82 ± 6	82 ± 4			
27 (GGUCUUUUUGACUAAACCUCUTTAGGUUUAGUCAAAAAGACCAATT; siRNA; Self-complementary hairpin strand, chemistry not given here, further chemistry not given here; listed as Homo sapiens) [compound 27]	9.96	> 80000	55 ± 5	72 ± 7	51 ± 9	95 ± 2	94 ± 4			
29 (UGUCUCCGAGCUCGCCUGCAUUUAUGCAGGCGAGCUCGGAGACAUU; siRNA; Self-complementary hairpin strand, chemistry not given here, further chemistry not given here; listed as Homo sapiens) [compound 29]	9.41	> 80000	58 ± 3	75 ± 1	52 ± 4	92 ± 3	87 ± 10			
26 (GAAGCAAAGAAAGAAGAAUCCTTAUUCUUCUUUCUUUGCUUCCATT; siRNA; Self-complementary hairpin strand, chemistry not given here, further chemistry not given here; listed as Homo sapiens) [compound 26]	9.42	> 80000	64 ± 3	86 ± 1	72 ± 17	95 ± 1	91 ± 3			
25 (GAUCAAUGCCCUCAUUAAAGCTTUUUAAUGAGGGCAUUGAUCUUTT; siRNA; Self-complementary hairpin strand, chemistry not given here, further chemistry not given here; listed as Homo sapiens) [compound 25]	8.74	> 80000	60 ± 3	74 ± 6	53 ± 12	88 ± 3	80 ± 7			
32 (AGAAGAAAGUGGAAGCAAAGAUUUCUUUGCUUCCACUUUCUUCUUU; siRNA; Self-complementary hairpin strand, chemistry not given here, further chemistry not given here; listed as Homo sapiens) [compound 32]	9.28	> 80000	32 ± 6	80 ± 7	71 ± 8	86 ± 4	87 ± 4			
24 (GCAAAGAAAGAAGAAUCCGTTCGGAUUCUUCUUUCUUUGCTT; siRNA; Self-complementary hairpin strand, chemistry not given here, further chemistry not given here; listed as Homo sapiens) [compound 24]	9.44	> 80000	66 ± 2	80 ± 1	48 ± 3	94 ± 4	89 ± 8	dose-dependent reduction of HBV S-antigen (HBsAg)	without affecting cell viability	inhibited the levels of HBsAg and HBeAg
